Measurements reported in patent US20080221361A1, “Ionic Liquids” (BIONIQS LIMITED, priority 2005, published 2008).

What was measured:
Type in all cases: physicochemical
Conditions in all cases: product dried to water content between about 0.2 and 1% w/w
[1] = Viscosity, AND SV10 vibrational viscometer
Description: (§1) Where the starting materials were both liquids, no solvent was used for the synthesis. Viscosities were measured using an AND™ SV10 vibrational viscometer. Refractive indices were obtained using a Mettler Toledo Refracto™ 30 portable refractometer. Densities were measured simply by determining the mass of a measured volume of the liquid. All products were dried prior to characterisation, to a water content of between about 0.2 and 1% w/w.

[2] = Refractive index, Mettler Toledo Refracto 30 portable refractometer
Description: as §1

[3] = Density, mass of a measured volume of the liquid
Description: as §1

| Molecule | Viscosity at 25° C. (centipoise) (error ± ~5%) [1] | Refractive index (error ± ~2%) [2] | Density (g/cm^3) (error ± ~2%) [3] [g/mL] |
| --- | --- | --- | --- |
| CCCCNCCO.O=CO [N-butylethanolammonium formate] | 376 | 1.462 | 1.04 |
| CCN(CC)CCO.O=C(O)CO [N,N-diethylethanolammonium glycolate] | 740 | 1.466 | 1.11 |
| CCC(=O)O.COCCN(C)C [N,N-dimethyl-2-methoxyethylammonium propionate] |  | 1.422 |  |
| N,N-dimethyl-2-methoxyethylammonium octanoate | 13.5 | 1.429 | 0.93 |
| COCCN(C)C.NS(=O)(=O)O [N,N-dimethyl-2-methoxyethylammonium sulphamate] |  | 1.472 |  |
| CC(=O)O.COCCCN [3-methoxypropylammonium acetate] | 640 | 1.447 | 1.04 |
| CCN(CC)CCO.O=CO [N,N-diethylethanolammonium formate] | 395 | 1.462 | 1.04 |
| CCS(=O)(=O)O.COCCN(C)C [N,N-dimethyl-2-methoxyethylammonium ethanesulphonate] |  | 1.449 |  |
| CC(=O)O.CN(C)CCOCCO [N,N-dimethyl-N-[(2-hydroxyethoxy)ethyl]ammonium acetate] | 48 | 1.45 | 1.05 |
| CC(=O)O.CCCCNCCO [N-butylethanolammonium acetate] | 365 | 1.455 | 1.04 |
| CC(=O)O.CCN(CC)CCO [N,N-diethylethanolammonium acetate] | 55 | 1.453 | 1.00 |
| CCC(=O)O.CCCNCCO [N-propylethanolammonium propionate] | 483 | 1.456 | 1.02 |
| CC(=O)O.CCCNCCO [N-propylethanolammonium acetate] | 1310 | 1.459 | 1.04 |
| CC(=O)O.COCCN(C)C [N,N-dimethyl-2-methoxyethylammonium acetate] |  | 1.426 |  |
| CN(C)CCCO.O=CO [N,N-dimethylpropanolammonium formate] | 132 | 1.460 | 1.07 |
| CC(=O)O.COCCN(C)CCOC [N-methyl-bis(2-methoxyethyl)ammonium acetate] |  | 1.423 |  |

| Molecule | Viscosity at 25° C. (centipoise) (error ± ~5%) [1] | Refractive index (error ± ~2%) [2] | Density (g/cm^3) (error ± ~2%) [3] [g/mL] |
| --- | --- | --- | --- |
| CC(=O)O.CCN(CC)CC(O)CO (stereo not drawn) [N,N-diethylpropane-2,3-diolammonium acetate] | 3100 |  |  |
| CCC(=O)O.COCCN(C)CCOC [N-methyl-bis(2-methoxyethyl)ammonium propionate] |  | 1.423 |  |
| CN(C)CCCO.O=C(O)CO [N,N-dimethylpropanolammonium glycolate] | 3320 | 1.472 | 1.14 |
| CCC(=O)O.CCCCNCCO [N-butylethanolammonium propionate] |  | 1.457 | 1.00 |
| COCCN(C)C.CS(=O)(=O)O [N,N-dimethyl-2-methoxyethylammonium methanesulphonate] |  | 1.449 |  |
| CCCCCCCC(=O)O.CCN(CC)CCO [N,N-diethylethanolammonium octanoate] | 46 | 1.451 | 0.96 |
| CC(=O)O.CN(C)CCCO [N,N-dimethylpropanolammonium acetate] | 77 | 1.451 | 1.03 |
| N-methyl-bis(2-methoxyethyl)ammonium octanoate |  | 1.431 |  |
| CCCCCCCC(=O)O.CCCCNCCO [N-butylethanolammonium octanoate] | 388 | 1.456 |  |
| COCCN(C)C.O=C(O)CO [N,N-dimethyl-2-methoxyethylammonium glycolate] |  | 1.459 |  |
| CCC(=O)O.CN(C)CCCO [N,N-dimethylpropanolammonium propionate] | 52 | 1.441 | 0.99 |
| CCCCNCCO.O=C(O)CO [N-butylethanolammonium glycolate] | 800 | 1.464 | 1.08 |
| COCCN(C)CCOC.O=C(O)CO [N-methyl-bis(2-methoxyethyl)ammonium glycolate] |  | 1.452 |  |
| CCC(=O)O.CCN(CC)CCO [N,N-diethylethanolammonium propionate] | 42 | 1.450 | 0.98 |
| COCCCN.O=C(O)CO [3-methoxypropylammonium glycolate] | 2670 | 1.470 | 1.17 |
